This note sets out measurements from patent US20260166128A1, “HUMAN AMYLIN ANALOG, AND DERIVATIVE THEREOF AND USE THEREOF” (priority 2022, published 2026).

Numbered stars: 1 amine (or outer) side, 2 acyl side, 3 side chain; on linkers, the order of the positions; unused ones are H or OH. Bridge positions count the residues as written; N and C are the ends. Square brackets hold non-standard residues; d marks the D form. Side chains are listed from the residue outwards. Peptide text beside a SMILES is read from it. * marks the point of attachment. C20 diacid = O=C(O)CCCCCCCCCCCCCCCCCCC(=O)*; γGlu = O=C(O)[C@H](CCC(=O)[*:2])N[*:1]; Hyp = O=C(O)[C@@H]1C[C@@H](O)CN1; AEEA = NCCOCCOCC(=O)O; Sar = CNCC(=O)O

For one data set, the target named is T1, human amylin receptor (Homo sapiens, UniProt O60896+P30988).
T1 construct: host or cells: CHO-K1/Ga15/AMY3 cells, further stably transfected with a CRE-luciferase plasmid
T1 sequence (P30988 25-474): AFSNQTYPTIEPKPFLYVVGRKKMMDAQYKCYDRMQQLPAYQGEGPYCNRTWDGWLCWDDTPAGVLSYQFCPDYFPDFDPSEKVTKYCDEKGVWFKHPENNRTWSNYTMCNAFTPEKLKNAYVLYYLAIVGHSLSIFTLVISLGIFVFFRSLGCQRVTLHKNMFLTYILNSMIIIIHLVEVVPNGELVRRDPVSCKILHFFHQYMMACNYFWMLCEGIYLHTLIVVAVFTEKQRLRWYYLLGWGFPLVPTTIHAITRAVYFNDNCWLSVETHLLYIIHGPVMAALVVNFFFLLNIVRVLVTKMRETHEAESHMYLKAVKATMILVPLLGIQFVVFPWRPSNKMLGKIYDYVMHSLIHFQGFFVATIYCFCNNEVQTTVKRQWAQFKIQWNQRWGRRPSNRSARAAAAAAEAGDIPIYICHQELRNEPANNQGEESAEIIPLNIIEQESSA
T1 sequence (O60896 24-148 partner): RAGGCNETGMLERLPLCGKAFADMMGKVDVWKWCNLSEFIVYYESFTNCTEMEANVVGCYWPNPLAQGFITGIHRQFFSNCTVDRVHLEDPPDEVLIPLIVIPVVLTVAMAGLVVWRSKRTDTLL
Nature of the data set: Luciferase assay of amylin derivatives in amylin receptor/CRE-luc CHO cell line. The following applies: CHO-K1/Ga15/AMY3 CRE-luc cells, 24 hours incubation, F12 medium containing 10% FBS; read-out: EC50. Type of data set: cell-based.

A short description of data set [1]: Freeze-thaw stability of derivatives (freeze-thaw yield by liquid chromatography). Type of data set: physicochemical. The method, then: The freeze-dried powder of the polypeptide analog derivative prepared in Example 1 was mixed with a buffer solution according to a mass-volume ratio of 0.2 mg/ml, the polypeptide was dissolved with 20 mM phosphate buffer solution (PB) (pH 7.0), the sample was stored at −20° C. for overnight storage, and then the sample was taken out to be restored to room temperature for thawing. During the experiment, property changes of the polypeptide after dissolution and freezing and thawing were observed and recorded respectively, and concentrations of the polypeptide before and after the freezing and thawing were detected by the following liquid chromatography method: Materials and equipment: high-performance liquid chromatographic instrument (Agilent 1200), ultrapure water (18.2 MΩ self-manufactured ultrapure water), acetonitrile (HPLC grade), and trifluoroacetic acid (HPLC grade); and reversed-phase chromatographic column: […] A sample to be tested was centrifuged at 10,000 rpm and 4° C. for 3 minutes, and a supernatant was taken and added into a liquid-phase sample injection bottle. […] A freeze-thaw yield was calculated by the following formula: freeze-thaw yield=concentration of polypeptide after the freezing and thawing/concentration of polypeptide before the freezing and thawing.

Description for human amylin receptor: The experiment was intended to detect the activity or efficacy of the amylin derivatives on a human amylin receptor in vitro by luciferase assay.
50 μL of growth medium (F12 medium containing 10% FBS) was added into each well of a white 96-well plate, and the stably transfected amylin/CRE-lue CHO cells were inoculated into the white 96-well plate at a density of about 20,000 cells/well for activity determination.

What is called EC50 is the concentration needed to bring the measured effect to its halfway point. For the compound `CC[C@H](C)[C@H](NC(=O)[C@@H]1CCCN1C(=O)[C@H](CCCCNC(=O)CC[C@H](NC(=O)CCCCCCCCCCCCCCCCCCC(=O)O)C(=O)O)NC(=O)[C@H](CC(C)C)NC(=O)[C@H](CC(N)=O)NC(=O)[C@H](CC(N)=O)NC(=O)[C@H](CO)NC(=O)[C@H](CO)NC(=O)[C@H](Cc1c[nH]cn1)NC(=O)[C@H](CCCNC(=N)N)NC(=O)[C@H](CC(C)C)NC(=O)[C@H](Cc1ccccc1)NC(=O)[C@H](CCC(=O)O)NC(=O)[C@H](C)NC(=O)[C@H](CC(C)C)NC(=O)[C@H](CCCNC(=N)N)NC(=O)[C@H](CCC(N)=O)NC(=O)[C@@H](NC(=O)[C@H](C)NC(=O)[C@@H]1CSSC[C@H](NC(=O)[C@@H](N)CCCNC(=N)N)C(=O)N[C@@H](CC(N)=O)C(=O)N[C@@H]([C@@H](C)O)C(=O)N[C@@H](C)C(=O)N[C@@H]([C@@H](C)O)C(=O)N1)[C@@H](C)O)C(=O)N[C@@H](CC(C)C)C(=O)N1CCC[C@H]1C(=O)N1CCC[C@H]1C(=O)N[C@H](C(=O)N[C@@H](CC(N)=O)C(=O)N[C@H](C(=O)NCC(=O)N[C@@H](CO)C(=O)N[C@@H](CC(N)=O)C(=O)N[C@H](C(=O)N1CCC[C@H]1C(N)=O)[C@@H](C)O)C(C)C)[C@@H](C)O` [PD047] (H-RCNTATCATQRLAEFLRHSSNNLK([γGlu-C20 diacid])PILPPTNVGSNTP-NH2; disulfide 2-7 (inferred); N-terminus assumed), the EC50 on human amylin receptor was 0.073 nM. The Freeze storage yield in data set [1] (concentration of polypeptide after freezing and thawing / concentration before, by liquid chromatography, −20° C. overnight) was 0.00%.

Regarding `CC[C@H](C)[C@H](NC(=O)[C@@H]1CCCN1C(=O)CNC(=O)[C@H](CC(C)C)NC(=O)[C@H](CC(N)=O)NC(=O)[C@H](CCCCNC(=O)CC[C@H](NC(=O)CCCCCCCCCCCCCCCCCCC(=O)O)C(=O)O)NC(=O)[C@H](CO)NC(=O)[C@H](CO)NC(=O)[C@H](Cc1c[nH]cn1)NC(=O)[C@H](CCCNC(=N)N)NC(=O)[C@H](CC(C)C)NC(=O)[C@H](Cc1ccccc1)NC(=O)[C@H](CCC(=O)O)NC(=O)[C@H](C)NC(=O)[C@H](CC(C)C)NC(=O)[C@H](CCCNC(=N)N)NC(=O)[C@H](CCC(N)=O)NC(=O)[C@@H](NC(=O)[C@H](C)NC(=O)[C@@H]1CSSC[C@H](NC(=O)[C@@H](N)CCCNC(=N)N)C(=O)N[C@@H](CC(N)=O)C(=O)N[C@@H]([C@@H](C)O)C(=O)N[C@@H](C)C(=O)N[C@@H]([C@@H](C)O)C(=O)N1)[C@@H](C)O)C(=O)N[C@@H](CC(C)C)C(=O)N1CCC[C@H]1C(=O)N1CCC[C@H]1C(=O)N[C@H](C(=O)N[C@@H](CC(N)=O)C(=O)N[C@H](C(=O)NCC(=O)N[C@@H](CO)C(=O)N[C@@H](CC(N)=O)C(=O)N[C@H](C(=O)N1CCC[C@H]1C(N)=O)[C@@H](C)O)C(C)C)[C@@H](C)O` [PD006] (H-RCNTATCATQRLAEFLRHSSK([γGlu-C20 diacid])NLGPILPPTNVGSNTP-NH2; disulfide 2-7 (inferred); N-terminus assumed), the EC50 at human amylin receptor was 0.129 nM. Moreover, the Dissolution property entry in data set [1] (appearance after dissolution at 0.2 mg/ml in 20 mM phosphate buffer solution (PB) (pH 7.0)) is “Clear”. In addition, the Freeze storage property result in data set [1] (appearance after overnight storage at −20° C. and thawing to room temperature, 0.2 mg/ml in 20 mM PB (pH 7.0)) is listed as “Clear”.

With `CC[C@H](C)[C@H](NC(=O)[C@@H]1CCCN1C(=O)[C@H](CCCCNC(=O)CC[C@H](NC(=O)CCCCCCCCCCCCCCCCCCC(=O)O)C(=O)O)NC(=O)[C@H](CC(C)C)NC(=O)[C@H](CC(N)=O)NC(=O)[C@H](CC(N)=O)NC(=O)[C@H](CO)NC(=O)[C@H](CO)NC(=O)[C@H](Cc1c[nH]cn1)NC(=O)[C@H](CCCNC(=N)N)NC(=O)[C@H](CC(C)C)NC(=O)[C@H](Cc1ccccc1)NC(=O)[C@H](CC(=O)O)NC(=O)[C@H](C)NC(=O)[C@H](CC(C)C)NC(=O)[C@H](CCCNC(=N)N)NC(=O)[C@H](CCC(N)=O)NC(=O)[C@@H](NC(=O)[C@H](C)NC(=O)[C@@H]1CSSC[C@H](NC(=O)[C@@H](N)CC(=O)O)C(=O)N[C@@H](CC(N)=O)C(=O)N[C@@H]([C@@H](C)O)C(=O)N[C@@H](C)C(=O)N[C@@H]([C@@H](C)O)C(=O)N1)[C@@H](C)O)C(=O)N[C@@H](CC(C)C)C(=O)N1CCC[C@H]1C(=O)N1CCC[C@H]1C(=O)N[C@H](C(=O)N[C@@H](CC(N)=O)C(=O)N[C@H](C(=O)NCC(=O)N[C@@H](CO)C(=O)N[C@@H](CC(N)=O)C(=O)N[C@H](C(=O)N1C[C@H](O)C[C@H]1C(N)=O)[C@@H](C)O)C(C)C)[C@@H](C)O` [PD079] (H-DCNTATCATQRLADFLRHSSNNLK([γGlu-C20 diacid])PILPPTNVGSNT[Hyp]-NH2; disulfide 2-7), the concentration giving a half-maximal response (EC50) on human amylin receptor was 0.131 nM.

Consider `CC[C@H](C)[C@H](NC(=O)[C@@H]1CCCN1C(=O)[C@H](CCCCNC(=O)COCCOCCNC(=O)COCCOCCNC(=O)CC[C@H](NC(=O)CCCCCCCCCCCCCCCCCCC(=O)O)C(=O)O)NC(=O)[C@H](CC(C)C)NC(=O)[C@H](CC(N)=O)NC(=O)[C@H](CC(N)=O)NC(=O)[C@H](CO)NC(=O)[C@H](CO)NC(=O)[C@H](Cc1c[nH]cn1)NC(=O)[C@H](CCCNC(=N)N)NC(=O)[C@H](CC(C)C)NC(=O)[C@H](Cc1ccccc1)NC(=O)[C@H](CC(=O)O)NC(=O)[C@H](C)NC(=O)[C@H](CC(C)C)NC(=O)[C@H](CCCNC(=N)N)NC(=O)[C@H](CCC(N)=O)NC(=O)[C@@H](NC(=O)[C@H](C)NC(=O)[C@@H]1CSSC[C@H](NC(=O)[C@@H](N)CCCNC(=N)N)C(=O)N[C@@H](CC(N)=O)C(=O)N[C@@H]([C@@H](C)O)C(=O)N[C@@H](C)C(=O)N[C@@H]([C@@H](C)O)C(=O)N1)[C@@H](C)O)C(=O)N[C@@H](CC(C)C)C(=O)N1CCC[C@H]1C(=O)N1CCC[C@H]1C(=O)N[C@H](C(=O)N[C@@H](CC(N)=O)C(=O)N[C@H](C(=O)NCC(=O)N[C@@H](CO)C(=O)N[C@@H](CC(N)=O)C(=O)N[C@H](C(=O)N1C[C@H](O)C[C@H]1C(N)=O)[C@@H](C)O)C(C)C)[C@@H](C)O` [PD081] (H-RCNTATCATQRLADFLRHSSNNLK([AEEA-AEEA-γGlu-C20 diacid])PILPPTNVGSNT[Hyp]-NH2; disulfide 2-7), for which the EC50 on human amylin receptor is 0.031 nM.

Take `CC[C@H](C)[C@H](NC(=O)[C@@H]1CCCN1C(=O)CN(C)C(=O)[C@H](CC(C)C)NC(=O)[C@H](CC(N)=O)NC(=O)[C@H](CC(N)=O)NC(=O)[C@H](CO)NC(=O)[C@H](CO)NC(=O)[C@H](Cc1c[nH]cn1)NC(=O)[C@H](CCCNC(=N)N)NC(=O)[C@H](CC(C)C)NC(=O)[C@H](Cc1ccccc1)NC(=O)[C@H](CC(=O)O)NC(=O)[C@H](C)NC(=O)[C@H](CC(C)C)NC(=O)[C@H](CCCNC(=N)N)NC(=O)[C@H](CCC(N)=O)NC(=O)[C@@H](NC(=O)[C@H](C)NC(=O)[C@@H]1CSSC[C@H](NC(=O)[C@H](CCCCN)NC(=O)CC[C@H](NC(=O)CCCCCCCCCCCCCCCCCCC(=O)O)C(=O)O)C(=O)N[C@@H](CC(N)=O)C(=O)N[C@@H]([C@@H](C)O)C(=O)N[C@@H](C)C(=O)N[C@@H]([C@@H](C)O)C(=O)N1)[C@@H](C)O)C(=O)N[C@@H](CC(C)C)C(=O)N1CCC[C@H]1C(=O)N1CCC[C@H]1C(=O)N[C@H](C(=O)N[C@@H](CC(N)=O)C(=O)N[C@H](C(=O)NCC(=O)N[C@@H](CO)C(=O)N[C@@H](CC(N)=O)C(=O)N[C@H](C(=O)N1CCC[C@H]1C(N)=O)[C@@H](C)O)C(C)C)[C@@H](C)O` [PD172] ({C20 diacid-γGlu}-KCNTATCATQRLADFLRHSSNNL[Sar]PILPPTNVGSNTP-NH2; disulfide 2-7 (inferred)): the EC50 on human amylin receptor amounted to 0.075 nM.
